According to patent US12534742B2, “Compound for regulating gene editing efficiency and application thereof” (Shanghai Institute of Organic Chemistry, Chinese Academy of …, priority 2018, dated 2026):
pIC50: −log10 of the molar value.
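Throughout, for pIC50: Cell-based reporter with a SpyCas9 target site placed in EGFP, where NHEJ repair of the cut restores the reading frame, read-out is the share of EGFP-positive cells, lowered by inhibitors.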

What follows are compounds tested against T1, SpyCas9 (Streptococcus pyogenes serotype M1, UniProt Q99ZW2) (assay: Inhibition of plasmid-expressed SpyCas9 editing of endogenous genes in HEK293 cells, T7E1 test). Conditions: HEK293 cells transfected with AAVS1-AS2 and pST-Cas9 plasmids; 10 μM compound; no-drug group 22.4% and 35.1%.
T1 construct: expressed in transfected cells; host or cells: HEK293
T1 sequence (Q99ZW2 whole entry, the tested form may be a part): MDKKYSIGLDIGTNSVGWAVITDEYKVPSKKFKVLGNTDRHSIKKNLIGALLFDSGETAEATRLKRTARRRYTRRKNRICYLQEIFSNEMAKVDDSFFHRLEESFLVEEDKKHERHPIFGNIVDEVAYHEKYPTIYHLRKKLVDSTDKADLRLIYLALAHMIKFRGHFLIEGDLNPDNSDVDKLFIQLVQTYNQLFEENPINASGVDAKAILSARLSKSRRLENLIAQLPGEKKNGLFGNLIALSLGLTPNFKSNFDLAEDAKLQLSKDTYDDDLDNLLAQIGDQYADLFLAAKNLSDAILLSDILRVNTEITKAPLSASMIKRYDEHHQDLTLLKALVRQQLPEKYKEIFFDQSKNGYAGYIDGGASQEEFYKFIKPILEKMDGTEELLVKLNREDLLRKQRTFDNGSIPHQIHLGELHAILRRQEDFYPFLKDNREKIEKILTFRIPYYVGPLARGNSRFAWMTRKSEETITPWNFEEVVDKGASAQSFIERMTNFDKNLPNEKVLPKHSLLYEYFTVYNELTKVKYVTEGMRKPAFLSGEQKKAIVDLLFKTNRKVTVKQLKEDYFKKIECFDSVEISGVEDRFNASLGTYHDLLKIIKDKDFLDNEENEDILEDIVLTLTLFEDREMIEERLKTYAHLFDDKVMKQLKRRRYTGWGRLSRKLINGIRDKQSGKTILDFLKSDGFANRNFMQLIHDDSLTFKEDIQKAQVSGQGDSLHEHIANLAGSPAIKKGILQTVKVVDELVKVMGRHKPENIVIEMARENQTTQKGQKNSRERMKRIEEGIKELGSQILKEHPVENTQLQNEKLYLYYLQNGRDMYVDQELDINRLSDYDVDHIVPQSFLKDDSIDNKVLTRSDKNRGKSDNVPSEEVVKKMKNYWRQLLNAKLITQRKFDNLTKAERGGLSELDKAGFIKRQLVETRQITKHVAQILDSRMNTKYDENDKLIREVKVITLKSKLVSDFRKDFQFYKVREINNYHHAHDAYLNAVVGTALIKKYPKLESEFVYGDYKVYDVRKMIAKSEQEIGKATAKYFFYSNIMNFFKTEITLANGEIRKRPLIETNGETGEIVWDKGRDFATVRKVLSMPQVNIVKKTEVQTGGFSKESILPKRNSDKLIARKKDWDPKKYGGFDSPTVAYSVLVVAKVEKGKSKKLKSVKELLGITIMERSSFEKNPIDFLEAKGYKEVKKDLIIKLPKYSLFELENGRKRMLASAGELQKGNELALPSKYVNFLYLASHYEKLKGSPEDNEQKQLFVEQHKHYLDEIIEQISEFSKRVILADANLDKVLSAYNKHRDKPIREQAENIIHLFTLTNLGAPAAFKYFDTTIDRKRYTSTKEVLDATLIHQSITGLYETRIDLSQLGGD
Assay type: cell-based
Description: HEK293 cells (10^5 cells/well) were seeded on a 24-well plate. 24 hours after inoculation, cells were transfected with 200 ng AAVS1-AS2 and 200 ng pST-Cas9 plasmid or 200 ng EMX1 and 200 ng pST-Cas9 plasmid in Opti-MEM medium. 6 hours after transfection, DMEM supplemented with 10% FBS and 10 μM drug (Compound 49) was used to replace Opti-MEM. The positive control for Cas9 activity was 200 ng AAVS1-AS2 and 200 ng pST-Cas9 plasmid or 200 ng EMX1 and 200 ng pST-Cas9 plasmid without drug. After the gene editing was completed, the cell genomic DNA was extracted, and the gene editing efficiency was tested by the T7E1 method (see Guschin, D. Y. et al. Methods Mol. Biol. 649, 247-256 (2010))).
The method of this example was the same as in Example 2.
Compound `CC1=CC(=O)c2c(O)cccc2C1=O` [Compound 48] has a gene modification rate of 0%.

Same assay, conditions: HEK293 cells transfected with EMX1 and pST-Cas9 plasmids; 10 μM compound; no-drug group 26.5% and 27.9%
Work on `CC1=CC(=O)c2c(O)cccc2C1=O` [Compound 48] yielded a gene modification rate of 0%.

These compounds were tested against CRISPR/Cas9 from Streptococcus pyogenes (SpyCas9) (Streptococcus pyogenes serotype M1, UniProt Q99ZW2) (assay: cell-based). Conditions: not given.
Chain of CRISPR/Cas9 from Streptococcus pyogenes (SpyCas9) (Q99ZW2 whole entry): as the sequence (Q99ZW2 whole entry, the tested form may be a part) above
With `O=C(/C=C/c1ccc(O)cc1)c1ccccc1` [Compound 12] the pIC50 was 4.00 to 5.00.
`COc1ccc(COCCCCC2=C3CCC(C)CC3CC2=O)cc1` (stereo not drawn) [Compound 897] showed a pIC50 of under 4.00.
Compound `CCN(Cc1ccccc1)S(=O)(=O)/C=C/c1ccccc1` [Compound 873] has a pIC50 of under 4.00.
`O=C1C=CCCC1` [Compound 885] was tested, and the pIC50 was under 4.00.
Compound `O=Cc1cc2c(cc1C#Cc1ccccc1)OCO2` [Compound 898] has a pIC50 of under 4.00.
With `CC(=O)/C=C/c1cc2c(cc1Br)OCO2` [Compound 889] the pIC50 was under 4.00.
`O=S(=O)(/C=C/c1ccccc1)N1CCN(Cc2ccccc2)CC1` [Compound 869] was tested, and the pIC50 was under 4.00.
Compound `Oc1cc(O)c2c(c1)O[C@H](c1ccc(O)c(O)c1)[C@@H](O)C2` [Compound 814] has a pIC50 of under 4.00.
In the case of `C=C(C)C(=O)N(CC)CC` [Compound 894], the pIC50 was under 4.00.
Compound `O=C(/C=C/c1ccccc1)N1CCCCC1` [Compound 840] has a pIC50 of under 4.00.
In the case of `O=C(/C=C/c1ccccc1)Nc1ccc([N+](=O)[O-])cc1` [Compound 861], the pIC50 was under 4.00.
`O=C(/C=C\n1cnc(-c2cc(C(F)(F)F)cc(C(F)(F)F)c2)n1)NNc1ccccn1` [Compound 901] showed a pIC50 of 5.00 to 6.00.
In the case of `Cc1ccc(=O)n(-c2ccccc2)c1` [Compound 836], the pIC50 was under 4.00.
For `CCC1(O)C(=O)OCc2c1cc1n(c2=O)Cc2cc3ccccc3nc2-1` (stereo not drawn) [Compound 874], the pIC50 was under 4.00.
With `O=S(=O)(/C=C/c1ccccc1)Oc1ccc(Br)cc1` [Compound 880] the pIC50 was under 4.00.
Work on `O=S(=O)(/C=C/c1ccccc1)Oc1cccc(F)c1` [Compound 879] yielded a pIC50 of under 4.00.
`O=C1CC(c2ccccc2O)Oc2ccccc21` (stereo not drawn) [Compound 816] showed a pIC50 of under 4.00.
`O=C(/C=C/c1ccccc1)c1ccc(Br)cc1` [Compound 900] was tested, and the pIC50 was under 4.00.
Compound `O=C(/C=C/c1ccc2c(c1)OCO2)c1ccccc1` [Compound 886] has a pIC50 of under 4.00.
`O=C(O)/C=C/c1cccc(O)c1` [Compound 801] showed a pIC50 of under 4.00.
Work on `O=C(/C=C/c1ccccc1Br)c1ccccc1` [Compound 127] yielded a pIC50 of 4.00 to 5.00.
Work on `C=CC(=O)N(C)C` [Compound 829] yielded a pIC50 of under 4.00.
With `O=C1CC(c2cccc(O)c2)Oc2ccccc21` (stereo not drawn) [Compound 817] the pIC50 was under 4.00.
With `O=C(/C=C/c1cccc(Cl)c1)c1cccc(Cl)c1` [Compound 895] the pIC50 was under 4.00.
`CC(=O)/C=C/c1ccccc1` [Compound 890] gave a pIC50 of under 4.00.
`COc1cc(-c2ncn(/C=C\C(=O)OC(C)C)n2)cc(C(F)(F)F)c1` [Compound 902] gave a pIC50 of 5.00 to 6.00.
`CS(=O)(=O)/C=C/c1ccccc1` [Compound 847] gave a pIC50 of under 4.00.
`N#C/C(=C1/SC[C@@H](c2ccc(Cl)cc2Cl)S1)n1ccnc1` [Compound 835] was tested, and the pIC50 was under 4.00.
With `CC1CC(C)CN(S(=O)(=O)/C=C/c2ccccc2)C1` (stereo not drawn) [Compound 870] the pIC50 was under 4.00.
For `COC(=O)/C=C/C(=O)OC` [Compound 826], the pIC50 was under 4.00.
`C/C(O)=C(\C#N)C(=O)Nc1ccc(C(F)(F)F)cc1` [Compound 837] was tested, and the pIC50 was under 4.00.
`O=C(/C=C/c1ccccc1)c1ccc(Cl)cc1` [Compound 105] gave a pIC50 of 4.00 to 5.00.
For `O=C(/C=C/c1cc(F)c(F)c(F)c1)c1ccccc1` [Compound 110], the pIC50 was 4.00 to 5.00.
`O=c1c(O)c(-c2ccc(O)c(O)c2)oc2cc(O)cc(O)c12` [Compound 850] was tested, and the pIC50 was under 4.00.
Compound `O=C(/C=C/c1ccccc1)Nc1c(F)cccc1F` [Compound 859] has a pIC50 of under 4.00.
`O=S(F)(=Nc1ccc(Br)cc1)Oc1ccc(Br)cc1` (stereo not drawn) [Compound 881] was tested, and the pIC50 was under 4.00.
`CCOCCNS(=O)(=O)/C=C/c1ccccc1` [Compound 867] gave a pIC50 of under 4.00.
With `CN(C)C/C=C/C(=O)Nc1cc2c(Nc3ccc(F)c(Cl)c3)ncnc2cc1O[C@@H]1CCOC1` [Compound 833] the pIC50 was under 4.00.
`O=C(/C=C/c1ccccc1)N1CCCC1` [Compound 855] was tested, and the pIC50 was under 4.00.
In the case of `O=C(/C=C/c1ccccc1)Nc1cccnc1` [Compound 862], the pIC50 was under 4.00.
`NC(=O)/C(=C/n1cnc(-c2cc(C(F)(F)F)cc(C(F)(F)F)c2)n1)c1cncnc1` [Compound 904] was tested, and the pIC50 was 5.00 to 6.00.
With `COc1ccc(/C=C/C(=O)c2ccccc2)cc1` [Compound 111] the pIC50 was 4.00 to 5.00.
With `C=C(C)C(N)=O` [Compound 825] the pIC50 was under 4.00.
Compound `O=C(/C=C/c1ccccc1)NC1CC1` [Compound 854] has a pIC50 of under 4.00.
Work on `COc1cc(/C=C/C(=O)CC(=O)/C=C/c2ccc(O)c(OC)c2)ccc1O` [Compound 75] yielded a pIC50 of 4.00 to 5.00.
Compound `COc1ccc(C(=O)/C=C/c2ccccc2)cc1` [Compound 102] has a pIC50 of 4.00 to 5.00.
With `O=C(/C=C/c1ccc(O)cc1)c1ccc(O)cc1O` [Compound 813] the pIC50 was under 4.00.
In the case of `COc1cc(/C=C/c2ccc(O)cc2)cc(OC)c1` [Compound 811], the pIC50 was under 4.00.
With `O=C(/C=C\n1cnc(-c2cc(C(F)(F)F)cc(C(F)(F)F)c2)n1)N1CC(F)(F)C1` [Compound 903] the pIC50 was 5.00 to 6.00.
`CN(C(=O)/C=C/c1ccccc1)c1ccccc1` [Compound 863] was tested, and the pIC50 was under 4.00.
`CCOCCNC(=O)/C=C/c1ccccc1` [Compound 853] showed a pIC50 of under 4.00.
`Cc1cccc(C2CCCN2S(=O)(=O)F)c1` (stereo not drawn) [Compound 884] was tested, and the pIC50 was under 4.00.
In the case of `COc1ccc(/C=C/S(=O)(=O)c2ccc(Cl)cc2)cc1` [Compound 892], the pIC50 was under 4.00.
Compound `O=C1C=CCC1` [Compound 888] has a pIC50 of under 4.00.
In the case of `CNC(=O)c1ccccc1Sc1ccc2c(/C=C/c3ccccn3)n[nH]c2c1` [Compound 834], the pIC50 was under 4.00.
With `CC(C)(C)OC(=O)N1CCN(C(=O)/C=C/c2ccccc2)CC1` [Compound 844] the pIC50 was under 4.00.
For `NC(=O)/C=C/c1ccccc1` [Compound 851], the pIC50 was under 4.00.
Work on `CN(C)C/C=C/C(=O)O` [Compound 876] yielded a pIC50 of under 4.00.
`NS(=O)(=O)/C=C/c1ccccc1` [Compound 865] was tested, and the pIC50 was under 4.00.
Work on `CN(C)C(=O)/C=C/c1ccccc1` [Compound 843] yielded a pIC50 of under 4.00.
In the case of `O=C(/C=C/c1ccccc1)N1CCOCC1` [Compound 841], the pIC50 was under 4.00.
Work on `C=CC(=O)OC` [Compound 828] yielded a pIC50 of under 4.00.
`CCN1C(=O)C=CC1=O` [Compound 838] showed a pIC50 of under 4.00.
`CCN(CC)S(=O)(=O)/C=C/c1ccccc1` [Compound 868] was tested, and the pIC50 was under 4.00.
`O=S(=O)(/C=C/c1ccccc1)Oc1ccc(I)cc1` [Compound 877] was tested, and the pIC50 was under 4.00.
`CCN(CC)C(=O)/C=C/c1ccccc1` [Compound 842] showed a pIC50 of under 4.00.
For `O=S(=O)(/C=C/c1ccccc1)N1CCOCC1` [Compound 864], the pIC50 was under 4.00.
Compound `CC(C)N(C(C)C)S(=O)(=O)/C=C/c1ccccc1` [Compound 871] has a pIC50 of under 4.00.
Compound `COc1cc(/C=C/C(=O)O)ccc1O` [Compound 803] has a pIC50 of under 4.00.
For `CN(c1ccccc1)S(=O)(=O)F` [Compound 883], the pIC50 was under 4.00.
`O=S(=O)(/C=C/c1ccccc1)c1ccc(Cl)cc1` [Compound 893] showed a pIC50 of under 4.00.
`C=CS(=O)(=O)c1ccccc1` [Compound 32] gave a pIC50 of 4.00 to 5.00.
`O=C(/C=C/c1ccccc1)N1CCN(Cc2ccccc2)CC1` [Compound 845] showed a pIC50 of under 4.00.
For `CC1=CC(=O)c2c(O)cccc2C1=O` [Compound 48], the pIC50 was 5.00 to 6.00.
Compound `CSc1ccc(NC(=O)/C=C/c2ccccc2)cc1` [Compound 860] has a pIC50 of under 4.00.
With `CC(C)c1ccc(OS(=O)(=O)/C=C/c2ccccc2)cc1` [Compound 878] the pIC50 was under 4.00.
For `O=C(/C=C/c1cccc(Cl)c1)c1ccccc1` [Compound 104], the pIC50 was 4.00 to 5.00.
`CN(C)c1ccc(/C=C/C(=O)c2ccccc2)cc1` [Compound 887] gave a pIC50 of under 4.00.
`O=c1c(O)c(-c2ccc(O)cc2)oc2ccccc12` [Compound 815] was tested, and the pIC50 was under 4.00.
Compound `C/C(C=O)=C\c1ccccc1` [Compound 827] has a pIC50 of under 4.00.
With `O=C(O)/C=C/c1ccc(O)cc1` [Compound 802] the pIC50 was under 4.00.
`C=CS(C)(=O)=O` [Compound 830] gave a pIC50 of under 4.00.
Compound `C#CCCOc1cccc(/C=C/S(=O)(=O)F)c1` [Compound 119] has a pIC50 of 5.00 to 6.00.
`O=C(/C=C/c1cccc(Br)c1)c1cccc(Br)c1` [Compound 896] was tested, and the pIC50 was under 4.00.
`O=S(=O)(/C=C/c1ccccc1)N1CCCCC1` [Compound 872] gave a pIC50 of under 4.00.
`CC(C)(C)OC(=O)N1CCN(S(=O)(=O)/C=C/c2ccccc2)CC1` [Compound 866] gave a pIC50 of under 4.00.
`COc1cc(/C=C/C(=O)N2CCC=CC2=O)cc(OC)c1OC` [Compound 905, Piperlongumine] gave a pIC50 of 5.00 to 6.00.
For `O=C(/C=C/c1ccc(Br)cc1)c1ccccc1` [Compound 101], the pIC50 was 4.00 to 5.00.
In the case of `COc1ccc(CNC(=O)/C=C/c2ccccc2)cc1` [Compound 846], the pIC50 was under 4.00.
For `O=S(F)(=Nc1ccc(Br)cc1)N1CCC(Cc2ccccc2)CC1` (stereo not drawn) [Compound 882], the pIC50 was under 4.00.
`COC(=O)/C=C/c1ccc(O)cc1` [Compound 804] was tested, and the pIC50 was under 4.00.
